Measurements reported in patent US20070031493A1, “Pharmaceutical compositions” (priority 1996, published 2007).

Key:
Type in all cases: physicochemical
[1] = Drug release from non-eroding high molecular weight xanthane matrix tablet, USP II apparatus; settings: non-eroding matrix of xanthane (195 mg), 5 mg drug; pH 6.8, +37° C., paddle 75 rpm; FIG. 2
Method: (§1) In the following Examples 1 to 3, drug release from various types of tablets was determined in pH 6.8, +37° C., by use of an USP II apparatus at a paddle stirring rate of 75 rpm. All tablet formulations were manufactured by conventional techniques and, for each example, in an identical manner except for the drug constituent.

[2] = Drug release and tablet erosion, eroding polyethyleneoxide (PEO) matrix tablet, USP II apparatus; settings: eroding matrix of PEO 8,000,000, 10 mg drug; pH 6.8, +37° C., paddle 75 rpm; FIG. 1
Method: as §1, with “constituent. […] Tablet erosion was determined by weighing after removal of the tablets from the dissolution apparatus and drying to constant weight.” for “constituent.”

[3] = Drug release from eroding paraffin matrix tablet and immediate release hard gelatin capsule, USP II apparatus; settings: 20 mg drug, pH 6.8, +37° C., paddle 75 rpm, FIG. 3
Method: as §1

[4] = Transport over a diffusion controlling polymeric membrane, two-compartment cell; settings: pH 6.8, +37° C., steady state, FIG. 4
Method: The release rate was studied at different initial concentrations of the active drug. The solutions (pH 6.8) in the chambers were well stirred and thermostated at +37° C. From the cumulative amount released versus time, the release rates (amount released/time) were determined as the slopes of the linear parts of the curves obtained at steady state. No accumulation in the membrane was found of any of the drugs. The results are presented in FIG. 4 as the release rates versus the concentrations used in the experiments.

Water solubility = test: Water solubility

drug release compared with tablet erosion [2] | drug release from sustained release tablet (comparison) [2] | drug release from sustained release tablet (comparison) [3] | release rate over membrane (comparison) [4] | water solubility (Water solubility) [mg/mL] | solubility (Water solubility; water) [mg/mL] | Compound | drug release from sustained release tablet (comparison) [1] | release rate over membrane versus concentration in donor chamber ([4]; different initial concentrations)
almost identical | slower than the release of methylparaben | slower than the release of diclofenac | much slower compared to diclofenac |  |  | CC(C)n1c(/C=C/[C@@H](O)C[C@@H](O)CC(=O)O)c(-c2ccc(F)cc2)c2ccccc21 (relative stereo) [fluvastatin, R*,S*-(E)-(±)-7-[3-(4-fluorophenyl)-1-(1-methyl-ethyl)-1H-indol-2-yl]-3,5-dihydroxy-6-heptenoic acid] | slower than the release of both diclofenac and methylparaben | independent of the concentration of fluvastatin in the donor compartment
 |  |  |  | > 50 | > 50 | CC(C)n1c(/C=C/C(O)CC(O)CC(=O)O)c(-c2ccc(F)cc2)c2ccccc21 (stereo not drawn) [fluvastatin sodium] |  | 
faster than the tablet erosion |  |  |  |  |  | COC(=O)c1ccc(O)cc1 [methylparaben, methyl p-hydroxybenzoate] |  | 
